{"source": "ChEMBL document CHEMBL1201862", "about": "“PubChem BioAssay data set” (2004)", "key": {"[1]": {"test": "Luminescence Cell-Based Dose Response HTS to Identify Inhibitors of 5'UTR Stem-Loop Driven Prion Protein mRNA Translation in H4 Neuroglioblastoma Cells. [Related pubchem assays: 1827 (Project Summary), 1813 (Primary HTS)]", "assay_type": "functional"}, "[2]": {"test": "control 3'UTR Renilla luciferase suppression, dose response, counter-screen for Shn3 inhibitor project, cell-based, Clone20-Shn3RL, cherry-picked (AID 624133)", "assay_type": "functional"}, "INS1": {"system": "INS1", "test": "beta cell apoptosis inhibitors, cytokine rescue, dose response, luminescence, retest (AID 449756);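 note: cell death triggered by IL-1 beta plus TNF-alpha plus IFN-gamma mixture; protective hits raise ATP signal compared with cytokine alone wells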", "assay_type": "functional, cell-based", "details": "Rattus norvegicus"}, "BJ [3]": {"system": "BJ", "test": "cytotoxicity toward BJ-TERT-LT-ST fibroblasts, dose response, cell-based, RAS-independent, luminescence (AID 1935);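 note: BJ fibroblasts immortalized with TERT plus LT and ST oncogenes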", "assay_type": "functional", "details": "Homo sapiens"}, "Protein RecA": {"target": "T1, Protein RecA (Mycobacterium tuberculosis, UniProt P9WHJ3)", "T1 sequence (P9WHJ3 whole entry)": "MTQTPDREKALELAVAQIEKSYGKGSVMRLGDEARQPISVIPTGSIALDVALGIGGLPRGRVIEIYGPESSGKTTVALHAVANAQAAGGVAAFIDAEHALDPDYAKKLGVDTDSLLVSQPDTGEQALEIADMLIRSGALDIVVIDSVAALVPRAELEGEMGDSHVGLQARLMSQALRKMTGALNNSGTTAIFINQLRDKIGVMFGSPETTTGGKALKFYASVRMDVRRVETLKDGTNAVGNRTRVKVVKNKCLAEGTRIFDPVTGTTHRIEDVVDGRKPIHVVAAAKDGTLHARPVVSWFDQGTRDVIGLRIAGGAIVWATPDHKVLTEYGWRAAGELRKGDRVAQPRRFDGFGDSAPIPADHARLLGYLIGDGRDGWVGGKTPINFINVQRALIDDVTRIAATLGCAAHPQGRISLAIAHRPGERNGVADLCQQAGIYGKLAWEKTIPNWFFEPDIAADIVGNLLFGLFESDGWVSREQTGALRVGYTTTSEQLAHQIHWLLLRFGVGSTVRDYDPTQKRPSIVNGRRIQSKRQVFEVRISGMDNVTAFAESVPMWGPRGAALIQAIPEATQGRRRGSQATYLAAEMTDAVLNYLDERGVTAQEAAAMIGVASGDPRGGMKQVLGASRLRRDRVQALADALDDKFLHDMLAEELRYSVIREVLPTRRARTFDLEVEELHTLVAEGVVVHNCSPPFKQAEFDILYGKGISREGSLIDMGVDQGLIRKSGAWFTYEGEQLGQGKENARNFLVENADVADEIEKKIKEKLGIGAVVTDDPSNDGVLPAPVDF", "test": "Fluorescence Cell-Free Homogeneous Dose Retest to Identify Inhibitors of RecA-Intein Splicing Activity. [Related pubchem assays (depositor defined):AID2097, AID2223, AID489010, AID492950]", "assay_type": "functional"}, "Caspase-6": {"target": "T2, Caspase-6 (Homo sapiens, UniProt P55212)", "T2 sequence (P55212 whole entry)": "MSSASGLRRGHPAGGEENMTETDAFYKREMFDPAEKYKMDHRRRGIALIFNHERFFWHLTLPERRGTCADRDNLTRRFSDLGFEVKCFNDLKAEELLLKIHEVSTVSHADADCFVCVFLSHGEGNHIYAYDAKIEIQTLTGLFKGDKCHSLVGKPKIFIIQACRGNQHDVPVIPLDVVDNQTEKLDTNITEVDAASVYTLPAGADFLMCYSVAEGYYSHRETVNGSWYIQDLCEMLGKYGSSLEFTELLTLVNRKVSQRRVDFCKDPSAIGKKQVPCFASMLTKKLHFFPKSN", "test": "human caspase-6 inhibitors, dose response, biochemical, VEID-R110 fluorescence, cherry-pick (AID 720632)"}, "[4]": {"test": "Fluorescence-based cell-based high throughput dose response assay for inhibitors of the interaction of nucleotide-binding oligomerization domain containing 2 (NOD2) and the receptor-interacting serine-threonine kinase 2 (RIPK2).", "assay_type": "functional", "details": "Homo sapiens"}, "[5]": {"test": "cytotoxicity toward DRD oncogenic fibroblasts, dose response, cell-based, non-viral oncogenic, luminescence (AID 1934)", "assay_type": "functional", "details": "Homo sapiens"}, "[6]": {"test": "Shn3 3'UTR reporter inhibitors, dose response, cell-based, Clone20 osteoblasts, firefly luciferase, cherry-picked (AID 624132)", "assay_type": "functional"}, "[7]": {"target": "T3, Replicative DNA helicase DnaB (Mycobacterium tuberculosis, UniProt P9WMR3)", "T3 sequence (P9WMR3 whole entry)": "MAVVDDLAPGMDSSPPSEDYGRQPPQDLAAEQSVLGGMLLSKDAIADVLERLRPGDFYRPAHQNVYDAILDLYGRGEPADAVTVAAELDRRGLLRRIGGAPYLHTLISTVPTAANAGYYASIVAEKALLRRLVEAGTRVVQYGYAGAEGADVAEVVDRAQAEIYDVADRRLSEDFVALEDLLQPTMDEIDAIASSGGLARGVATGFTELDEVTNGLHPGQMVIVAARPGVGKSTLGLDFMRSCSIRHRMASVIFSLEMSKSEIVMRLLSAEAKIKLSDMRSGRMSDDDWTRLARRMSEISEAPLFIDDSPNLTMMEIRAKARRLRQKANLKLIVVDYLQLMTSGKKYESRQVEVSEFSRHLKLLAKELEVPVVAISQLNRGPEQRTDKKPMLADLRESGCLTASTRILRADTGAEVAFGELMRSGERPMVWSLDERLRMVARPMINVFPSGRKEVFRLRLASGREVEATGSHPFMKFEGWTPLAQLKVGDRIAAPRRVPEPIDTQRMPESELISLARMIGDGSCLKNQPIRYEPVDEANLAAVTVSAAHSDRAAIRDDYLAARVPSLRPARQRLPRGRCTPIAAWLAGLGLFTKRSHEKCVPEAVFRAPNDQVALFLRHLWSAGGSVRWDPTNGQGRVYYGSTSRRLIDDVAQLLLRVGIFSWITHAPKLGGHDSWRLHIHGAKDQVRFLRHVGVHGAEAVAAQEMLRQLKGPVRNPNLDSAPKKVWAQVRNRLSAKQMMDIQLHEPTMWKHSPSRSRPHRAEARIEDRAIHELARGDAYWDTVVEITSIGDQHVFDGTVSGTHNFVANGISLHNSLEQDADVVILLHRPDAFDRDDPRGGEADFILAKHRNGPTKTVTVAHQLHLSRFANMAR", "test": "DnaB intein splicing inhibitors, dose response, biochemical, cell-free fluorescence (AID 449749)", "assay_type": "functional"}, "BJ [8]": {"system": "BJ", "test": "cytotoxicity toward BJ-TERT fibroblasts, dose response, cell-based, RAS-independent, luminescence (AID 1933)", "assay_type": "functional", "details": "Homo sapiens"}, "BJ [9]": {"system": "BJ", "test": "cytotoxicity toward Ras-transformed BJeLR fibroblasts, dose response, cell-based, alamar blue fluorescence, cherrypicked samples (AID 2631)", "assay_type": "functional", "details": "Homo sapiens"}, "[10]": {"test": "HepG2 cell cytotoxicity, dose response, cytotoxicity control for Shn3 inhibitor project, CellTiter-Glo, cherry-picked (AID 624134)", "assay_type": "functional, cell-based"}, "[11]": {"test": "inhibitors of firefly luciferase expression or activity, dose response, H4 neuroglioma cells, luminescence (AID 1990)", "assay_type": "functional, cell-based"}, "BJ [12]": {"system": "BJ", "test": "cells", "assay_type": "functional, cell-based", "details": "Homo sapiens"}, "[13]": {"test": "inhibitors of SNCA 5'UTR-driven reporter translation, confirmation, H4 neuroglioma cells, luminescence (AID 1988)", "assay_type": "functional, cell-based"}, "[14]": {"test": "Vero cell cytotoxicity, dose response, cytotoxicity control for Vif-APOBEC3G degradation inhibitor project, Vero cells (AID 1117358)", "assay_type": "functional", "details": "Human immunodeficiency virus 1, Vero"}, "H9c2": {"system": "H9c2", "test": "cells", "assay_type": "functional, cell-based", "details": "Rattus norvegicus, H9c2, Myocardium"}, "Cytochrome P450 2C9": {"target": "Cytochrome P450 2C9 (Homo sapiens, UniProt P11712)", "sequence (P11712 whole entry)": "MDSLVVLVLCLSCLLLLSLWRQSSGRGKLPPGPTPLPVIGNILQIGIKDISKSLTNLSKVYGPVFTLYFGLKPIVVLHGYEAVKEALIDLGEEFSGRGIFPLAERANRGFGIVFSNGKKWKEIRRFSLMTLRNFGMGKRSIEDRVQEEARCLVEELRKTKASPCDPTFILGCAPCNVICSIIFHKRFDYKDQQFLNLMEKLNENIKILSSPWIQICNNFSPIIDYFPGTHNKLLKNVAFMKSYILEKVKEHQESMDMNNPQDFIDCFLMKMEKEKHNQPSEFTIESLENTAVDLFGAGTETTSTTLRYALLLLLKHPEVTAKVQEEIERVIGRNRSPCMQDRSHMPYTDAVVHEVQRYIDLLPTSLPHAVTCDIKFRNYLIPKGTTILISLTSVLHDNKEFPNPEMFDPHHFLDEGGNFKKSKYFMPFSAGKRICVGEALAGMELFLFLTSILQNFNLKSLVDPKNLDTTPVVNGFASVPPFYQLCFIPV"}, "Cytochrome P450 1A2": {"target": "T4, Cytochrome P450 1A2 (Homo sapiens, UniProt P05177)", "T4 sequence (P05177 whole entry)": "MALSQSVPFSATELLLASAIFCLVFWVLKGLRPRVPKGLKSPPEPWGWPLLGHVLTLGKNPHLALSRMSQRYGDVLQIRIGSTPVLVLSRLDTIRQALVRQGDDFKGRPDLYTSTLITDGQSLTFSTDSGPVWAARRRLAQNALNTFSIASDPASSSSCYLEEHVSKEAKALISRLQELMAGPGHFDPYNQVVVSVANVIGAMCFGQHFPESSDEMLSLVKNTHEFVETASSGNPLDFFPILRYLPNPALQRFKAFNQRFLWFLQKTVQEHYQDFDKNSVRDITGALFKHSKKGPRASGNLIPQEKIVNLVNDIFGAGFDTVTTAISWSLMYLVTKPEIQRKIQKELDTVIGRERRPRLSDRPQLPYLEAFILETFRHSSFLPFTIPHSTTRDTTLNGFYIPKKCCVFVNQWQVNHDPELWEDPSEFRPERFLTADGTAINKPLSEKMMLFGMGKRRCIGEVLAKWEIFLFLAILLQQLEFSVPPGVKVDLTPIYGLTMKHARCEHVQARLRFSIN"}, "Cytochrome P450 2C19": {"target": "Cytochrome P450 2C19 (Homo sapiens, UniProt P33261)", "sequence (P33261 whole entry)": "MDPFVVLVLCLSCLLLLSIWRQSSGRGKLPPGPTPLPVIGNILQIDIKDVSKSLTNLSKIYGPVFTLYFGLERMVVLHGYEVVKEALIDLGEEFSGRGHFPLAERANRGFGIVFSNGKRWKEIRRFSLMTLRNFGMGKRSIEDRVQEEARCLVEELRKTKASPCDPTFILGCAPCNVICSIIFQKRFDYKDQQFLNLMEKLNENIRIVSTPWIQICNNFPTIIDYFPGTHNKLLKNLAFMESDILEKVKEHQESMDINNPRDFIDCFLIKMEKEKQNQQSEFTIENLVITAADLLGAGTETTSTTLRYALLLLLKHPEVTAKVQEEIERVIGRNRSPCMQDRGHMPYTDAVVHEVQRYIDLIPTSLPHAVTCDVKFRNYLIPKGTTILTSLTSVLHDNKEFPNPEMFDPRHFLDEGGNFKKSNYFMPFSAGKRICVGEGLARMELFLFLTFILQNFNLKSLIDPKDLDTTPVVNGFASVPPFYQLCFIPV", "test": "Cytochrome panel assay with activity outcomes. Panel member name: p450-cyp2c19 Compounds with AC50 equal or less than 10 uM are considered active", "assay_type": "functional", "details": "read-out: AC50"}}, "note": "Active and inactive are the calls of the source."}
{"smiles": "O=C(Nc1ccc2nc3n(c(=O)c2c1)CCCCC3)c1c(F)ccc([N+](=O)[O-])c1F", "values": [{"measurement": "EC50", "setting": "[1]", "value": "> 120 µM (not active)"}, {"measurement": "AC50", "setting": "[2]", "value": "4.65 µM (active)"}, {"measurement": "AC50", "setting": "INS1", "value": "6.28 µM (active)"}, {"measurement": "EC50", "setting": "BJ [3]", "value": "50.7 µM (inconclusive)"}, {"measurement": "EC50", "setting": "Protein RecA", "value": "5.17 µM (active)"}, {"measurement": "AC50", "setting": "Caspase-6", "value": "4.39 µM (active)"}, {"measurement": "IC50", "setting": "[4]", "value": "8.8 µM (active)"}, {"measurement": "EC50", "setting": "[5]", "value": "4.04 µM (inconclusive)"}, {"measurement": "AC50", "setting": "[6]", "value": "2.3 µM (active)"}, {"measurement": "AC50", "setting": "[7]", "value": "14.8 µM (active)"}, {"measurement": "EC50", "setting": "BJ [8]", "value": "17.7 µM (active)"}, {"measurement": "EC50", "setting": "BJ [9]", "value": "0.571 µM (active)"}, {"measurement": "AC50", "setting": "[10]", "value": "12.5 µM (active)"}, {"measurement": "EC50", "setting": "[11]", "value": "> 120 µM (not active)"}, {"measurement": "EC50", "setting": "BJ [12]", "value": "> 150 µM (inconclusive)"}, {"measurement": "EC50", "setting": "[13]", "value": "> 120 µM (not active)"}]}
{"smiles": "Cc1ccc(C)c2nc(O)c(CN(Cc3ccc4c(c3)OCO4)Cc3nnnn3Cc3ccco3)cc12", "values": [{"measurement": "CC50", "setting": "[14]", "value": "> 40 µM (active)"}, {"measurement": "IC50", "setting": "H9c2", "value": "> 79 µM (inactive)"}]}
{"smiles": "O=C(NNC(=O)c1ccccc1-n1cccc1)c1ccc(Cl)c(Cl)c1", "values": [{"measurement": "AC50", "setting": "Cytochrome P450 2C9", "value": "inconclusive"}, {"measurement": "CC50", "setting": "[14]", "value": "> 40 µM (active)"}, {"measurement": "AC50", "setting": "Cytochrome P450 1A2", "value": "25.1 µM (inconclusive)"}, {"measurement": "AC50", "setting": "Cytochrome P450 2C19", "value": "3.98 µM (inconclusive)"}]}
